Like-named read-outs stand apart in the source and are kept apart here. Each block holds one compound with its values, some of them ahead of it.
Tests used:
B16-F10 melanoma cells [1] = experiment: Cell viability assay (PrestoBlue resazurin); type: cell-based, Mus musculus (mouse);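 further: mouse B16-F10 melanoma cells exposed to test samples for 72 h, with viability read as fluorescence of resorufin formed when living cells reduce PrestoBlue resazurin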
[2] = Cell viability assay (PrestoBlue resazurin); type: cell-based, Mus musculus (mouse); conditions: mouse, 72 h, relative to control, read-out: % Cell Viability;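 further: mouse B16-F10 melanoma cells exposed to test samples for 72 h, with viability read as fluorescence of resorufin formed when living cells reduce PrestoBlue resazurin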
B16-F10 melanoma cells [3] = experiment: Total melanin content assay; type: cell-based, Mus musculus (mouse); conditions: for activity at 15 µM / activity at 30 µM: B16-F10, read-out: % Melanin Content; for activity at 15 µM / activity at 30 µM / % Melanin Content: 72 h, relative to control
Description: Mus musculus (mouse) melanoma cell line, B16-F10 (ATCC® Number: CRL-6475™, Manassas, VA, USA), was cultured in complete Dulbecco′s Modified Eagle′s Medium (DMEM, phenol red-free medium) containing 10% fetal bovine serum, 25 mM glucose, 4 mM L-glutamine, 1 mM sodium pyruvate, 10 μg/mL penicillin, and 10 μg/mL streptomycin, at 37 °C, with 5% carbon dioxide (CO2) in a humidified atmosphere.
The total melanin content, produced both extracellularly and intracellularly, was determined as follows: B16-F10 cells were seeded onto a 24-well plate at a concentration of 50,000 cells/0.5 mL/well and were incubated for 24 h, followed by treatment with either the test compounds or the control (0.5% DMSO), and then incubated for 72 h. For extraction, the total produced melanin and 0.5 mL of 2 N NaOH containing 20% DMSO were added directly to the cell culture medium, mixed by pipetting and then incubated at room temperature for 1 h. The lysed cell extract was centrifuged at 13,000× g for 5 min. Finally, the supernatant was transferred to a 96-well plate and the relative melanin content was detected at 405 nm using a micro plate reader. Kojic acid and oxyresveratrol were used as positive controls.

mushroom tyrosinase [4] = target: mushroom tyrosinase (Agaricus bisporus, UniProt C7FF04); experiment: Mushroom tyrosinase inhibitory assay (o-diphenolase activity, L-DOPA as substrate); type: biochemical; conditions: for inhibition at 200 µM: read-out: Mushroom Tyrosinase Inhibition % Inhibition (at 200 μM);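 on all read-outs here: enzyme and test sample preincubated 10 min at 25 °C in pH 6.8 phosphate buffer, 50% DMSO vehicle as control, enzyme-free mixture as blank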
murine tyrosinase = target: T1, murine tyrosinase (Mus musculus, UniProt P11344); experiment: Murine tyrosinase inhibitory assay (o-diphenolase activity, crude enzyme from B16-F10 melanoma cells); type: biochemical; conditions: 200 μM, L-DOPA substrate;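 further: crude tyrosinase taken from lysed, dialyzed B16-F10 cell extract, with the inhibition reaction incubated for 2 h at 37 °C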
T1 construct: The cells were lysed by vortex and incubated at 4 °C for 1 h to solubilize the tyrosinase enzyme; endogenous in cells; host or cells: B16-F10 melanoma cells (Triton X-100 lysate, dialyzed)
T1 sequence (P11344 19-533): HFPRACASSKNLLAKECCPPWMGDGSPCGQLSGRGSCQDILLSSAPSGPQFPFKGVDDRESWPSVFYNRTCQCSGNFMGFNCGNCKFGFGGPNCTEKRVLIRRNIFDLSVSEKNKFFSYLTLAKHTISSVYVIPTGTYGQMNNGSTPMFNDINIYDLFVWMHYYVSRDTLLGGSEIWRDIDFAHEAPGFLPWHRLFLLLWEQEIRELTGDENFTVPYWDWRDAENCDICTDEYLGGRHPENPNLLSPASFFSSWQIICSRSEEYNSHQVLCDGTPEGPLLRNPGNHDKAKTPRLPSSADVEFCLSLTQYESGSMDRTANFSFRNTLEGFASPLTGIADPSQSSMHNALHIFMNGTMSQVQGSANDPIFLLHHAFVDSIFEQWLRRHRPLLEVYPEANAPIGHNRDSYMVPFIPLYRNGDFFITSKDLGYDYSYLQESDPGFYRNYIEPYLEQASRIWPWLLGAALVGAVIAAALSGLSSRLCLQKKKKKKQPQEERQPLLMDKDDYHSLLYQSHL

[5] = tested on: human melanoma cells (MMV II); design: method as in PMID 25248426; conditions: cited from earlier work
tyrosinase = tested on: tyrosinase; design: method as in PMID 17295516; conditions: cited from earlier work
mushroom tyrosinase [6] = conditions: cited from earlier work
[7] = tested on: murine B16-F10 melanoma cells; design: method as in PMID 17873839, PMID 14717847, PMID 16794334, PMID 26656314; conditions: cited from earlier work
[8] = tested on: murine melan-a melanocytes; design: method as in PMID 19182387; conditions: cited from earlier work
[9] = 30 μM, 72 h, relative to control
[10] = read-out: Murine Tyrosinase Inhibition, % (at 200 μM)
[11] = read-out: monophenolase activity of mushroom tyrosinase IC50

mushroom tyrosinase (Agaricus bisporus, UniProt C7FF04), sequence (G1K3P4 entry or part of it): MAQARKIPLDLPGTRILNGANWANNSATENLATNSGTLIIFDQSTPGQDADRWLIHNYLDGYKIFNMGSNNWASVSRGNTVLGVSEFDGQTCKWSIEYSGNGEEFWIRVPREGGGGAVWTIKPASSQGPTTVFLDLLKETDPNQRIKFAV
mushroom tyrosinase (Agaricus bisporus, UniProt C7FF04), sequence (C7FF04 2-392): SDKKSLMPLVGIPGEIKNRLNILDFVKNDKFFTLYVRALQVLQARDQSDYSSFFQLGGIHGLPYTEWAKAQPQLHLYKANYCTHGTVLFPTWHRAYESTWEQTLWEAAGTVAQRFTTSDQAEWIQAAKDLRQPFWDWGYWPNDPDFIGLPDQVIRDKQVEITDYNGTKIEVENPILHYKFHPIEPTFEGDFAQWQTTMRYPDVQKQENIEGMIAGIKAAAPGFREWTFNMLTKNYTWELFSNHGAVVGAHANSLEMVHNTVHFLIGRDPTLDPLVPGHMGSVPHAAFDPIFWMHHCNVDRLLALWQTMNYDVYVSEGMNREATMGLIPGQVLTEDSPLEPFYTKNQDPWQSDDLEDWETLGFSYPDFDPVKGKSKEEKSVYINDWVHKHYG

inhibition at 200 µM (mushroom tyrosinase [4]; 200 μM, L-DOPA substrate): 72.7 ± 2.2%
inhibition at 200 µM (murine tyrosinase; [10]): 10.1 ± 3%
Compound: COc1cc(O)c(-c2coc3cc(O)cc(O)c3c2=O)cc1O [Compound 5, Khrinone B]
% Cell Viability (B16-F10 melanoma cells [1]; [9]): 62.3 ± 15.1%
viability at 72 h, 15 µM ([2]; B16-F10 melanoma cells): 95.1 ± 5.4%
viability at 72 h, 30 µM ([2]; B16-F10 melanoma cells): 60%
activity at 15 µM (B16-F10 melanoma cells [3]; Mus musculus, 15 μM): 84.1 ± 5.3%
activity at 30 µM (B16-F10 melanoma cells [3]; Mus musculus, 30 μM): 34.7 ± 12.3%

Compound: O=c1cc(-c2ccc(O)cc2)oc2cc(O)cc(O)c12 [apigenin]
effect on melanogenesis (in words) [5]: melanogenesis-promoting actions

Compound: O=c1c(-c2ccc(O)cc2)coc2c(O)c(O)ccc12 [7,8,4′-trihydroxyisoflavone]
inhibition of monophenolase and diphenolase activities of tyrosinase (in words) (tyrosinase): irreversibly inhibit

Compound: O=c1cc(-c2ccccc2)oc2cc(O)cc(O)c12 [chrysin]
effect on melanogenesis (in words) [5]: melanogenesis-promoting actions

inhibition at 500 µM (mushroom tyrosinase [4]; 500 μM, L-DOPA substrate): 13%
inhibition at 200 µM (murine tyrosinase; [10]): 9.5 ± 1.6%
Compound: COc1ccc([C@H]2COc3cc(O)ccc3C2=O)c(OC)c1 [Compound 14, (3S)-Sativanone]
% Cell Viability (B16-F10 melanoma cells [1]; [9]): 64.3 ± 23.7%
viability at 72 h, 15 µM ([2]; B16-F10 melanoma cells): 107 ± 10.6%
viability at 72 h, 30 µM ([2]; B16-F10 melanoma cells): 60%
activity at 15 µM (B16-F10 melanoma cells [3]; Mus musculus, 15 μM): 124 ± 4.3%
activity at 30 µM (B16-F10 melanoma cells [3]; Mus musculus, 30 μM): 128 ± 6%

Compound: O=c1cc(-c2ccc(O)c(O)c2)oc2cc(O)cc(O)c12 [luteolin]
effect on melanogenesis (in words) [5]: melanogenesis-promoting actions

inhibition at 200 µM (mushroom tyrosinase [4]; 200 μM, L-DOPA substrate): 84.6 ± 0.6%
inhibition at 200 µM (murine tyrosinase; [10]): 29.2 ± 2.9%
Compound: COc1cc2c(cc1O)[C@@H]1COc3cc(O)ccc3[C@@H]1O2 [Compound 27, (6aR,11aR)-3,8-Dihydroxy-9-methoxy pterocarpan]
toxicity to B16-F10 cells (in words) (B16-F10 melanoma cells [1]; 15 μM): no toxicity
% Cell Viability (B16-F10 melanoma cells [1]; [9]): 14.5 ± 0.9%
viability at 72 h, 15 µM ([2]; B16-F10 melanoma cells): 106 ± 4.9%
viability at 72 h, 30 µM ([2]; B16-F10 melanoma cells): 14%
effect on melanin content (in words, Figure 1) (B16-F10 melanoma cells [3]; 30 μM): inhibitory effect of melanogenesis
inhibition at 15 µM (B16-F10 melanoma cells [3]; Mus musculus, B16-F10, 15 μM, read-out: inhibition of melanogenesis): 59%
activity at 15 µM (B16-F10 melanoma cells [3]; Mus musculus, 15 μM): 41.9 ± 0.4%
activity at 30 µM (B16-F10 melanoma cells [3]; Mus musculus, 30 μM): 53.5 ± 0.4%

Compound: O=c1c(-c2ccc(O)cc2)coc2cc(O)ccc12 [daidzein, 7,4′-dihydroxyisoflavone]
IC50 (mushroom tyrosinase [6]; [11]): 264 µM

Compound: O=c1c(O)c(-c2ccc(O)c(O)c2)oc2cc(O)cc(O)c12 [quercetin]
effect on melanogenesis (in words) [5]: melanogenesis-promoting actions
effect on melanogenesis (in words) [7]: stimulate melanogenesis

Compound: COc1cc(O)c2c(=O)c(O)c(-c3ccc(O)c(O)c3)oc2c1 [rhamnetin]
effect on melanogenesis (in words) [5]: melanogenesis-promoting actions

Compound: O=C1C[C@@H](c2ccc(O)cc2)Oc2cc(O)cc(O)c21 [naringenin]
effect on melanogenesis (in words) [7]: stimulate melanogenesis

Compound: O=c1c(-c2ccc(O)cc2)coc2c(O)c(O)cc(O)c12 [5,7,8,4′-tetrahydroxyisoflavone]
inhibition of monophenolase and diphenolase activities of tyrosinase (in words) (tyrosinase): irreversibly inhibit

behaviour as substrate of mushroom tyrosinase (in words) (mushroom tyrosinase [4]; pre-incubation with enzyme in absence of L-DOPA, coloured product at 475 nm): chromogenic substrate analogs
inhibition at 200 µM (murine tyrosinase; [10]): 9.9 ± 3.1%
Compound: O=c1c(-c2ccc(O)cc2)coc2cc(O)cc(O)c12 [Compound 4, Genistein]
viability at 72 h, 15 µM [2]: 128 ± 3.5%
viability at 72 h, 30 µM [2]: 93.8 ± 5.7%
effect on melanin content (in words, Figure 1) (B16-F10 melanoma cells [3]; 30 μM): increased the melanin content
activity at 15 µM (B16-F10 melanoma cells [3]; Mus musculus, 15 μM): 165.1 ± 1.6%
activity at 30 µM (B16-F10 melanoma cells [3]; Mus musculus, 30 μM): 192 ± 13.9%
effect on melanogenesis (in words) [5]: melanogenesis-promoting actions
IC50 (mushroom tyrosinase [6]; [11]): 822 µM

Compound: COc1ccc(-c2coc3cc(O)ccc3c2=O)cc1O [Compound 2, Calycosin]
viability at 72 h, 15 µM ([2]; B16-F10 melanoma cells): 99.1 ± 9.2%
viability at 72 h, 30 µM ([2]; B16-F10 melanoma cells): 101 ± 1.9%
activity at 15 µM (B16-F10 melanoma cells [3]; Mus musculus, 15 μM): 143 ± 8.2%
activity at 30 µM (B16-F10 melanoma cells [3]; Mus musculus, 30 μM): 197 ± 6.4%
IC50 (mushroom tyrosinase [6]; read-out: monophenolase inhibition of mushroom tyrosinase IC50): 38.4 µM
inhibitory activity on mushroom tyrosinase (in words) (mushroom tyrosinase [4]; o-diphenolase, L-DOPA substrate): did not show inhibitory activity
inhibition at 300 µM (mushroom tyrosinase [4]; read-out: Mushroom Tyrosinase Inhibition % Inhibition (at 300 μM)): 0%
inhibition at 200 µM (murine tyrosinase; read-out: Murine Tyrosinase Inhibition, % (at 200 μM), symbol): < 0%
effect on melanin biosynthesis (in words) [8]: reduced melanin biosynthesis

Compound: COc1cc2c(=O)c(-c3ccc(O)cc3)coc2cc1O [glycitein, 6-methoxy-7,4′-dihydroxyisoflavone]
IC50 (mushroom tyrosinase [6]; [11]): 237 µM

Compound: O=c1c(O)c(-c2ccc(O)c(O)c2)oc2cc(O)ccc12 [fisetin]
effect on melanogenesis (in words) [5]: melanogenesis-promoting actions

Compound: O=c1c(-c2ccc(O)cc2)coc2cc(O)c(O)cc12 [6,7,4′-trihydroxyisoflavone]
IC50 (mushroom tyrosinase [6]; [11]): 9.2 µM

Compound: Alpinetin [Compound 26]
% Cell Viability (B16-F10 melanoma cells [1]; 15 μM): 77.0 ± 12.7%
% Cell Viability (B16-F10 melanoma cells [1]; 30 μM): 77.1 ± 10.2%
% Melanin Content (B16-F10 melanoma cells [3]; 15 μM): 89.7 ± 0.4%
% Melanin Content (B16-F10 melanoma cells [3]; 30 μM): 92.3 ± 1.6%
Mushroom Tyrosinase Inhibition % Inhibition (at 200 μM) (mushroom tyrosinase [4]; 200 μM, L-DOPA substrate): 36.9 ± 0.5%
IC50 (mushroom tyrosinase [4]; L-DOPA substrate, read-out: Mushroom Tyrosinase Inhibition IC50): 450 ± 48.5 µM
Murine Tyrosinase Inhibition, % (at 200 μM), symbol (murine tyrosinase): - (no inhibition at 200 μM)

inhibition at 200 µM (mushroom tyrosinase [4]; 200 μM, L-DOPA substrate): 64.1 ± 1.3%
inhibition at 200 µM (murine tyrosinase; [10]): 11.4 ± 2.5%
Compound: COc1ccc(C2COc3c(ccc(O)c3OC)C2)c(O)c1O [Compound 21, (3R,S)-3′-Hydroxy-8-methoxy vestitol]
% Cell Viability (B16-F10 melanoma cells [1]; [9]): 62.4 ± 3.2%
viability at 72 h, 15 µM ([2]; B16-F10 melanoma cells): 102.9 ± 1%
viability at 72 h, 30 µM ([2]; B16-F10 melanoma cells): 60%
activity at 15 µM (B16-F10 melanoma cells [3]; Mus musculus, 15 μM): 97 ± 6.3%
activity at 30 µM (B16-F10 melanoma cells [3]; Mus musculus, 30 μM): 36.3 ± 0.1%

— paper PMC6100075, “Correlation between the Potency of Flavonoids on Mushroom Tyrosinase Inhibitory Activity and Melanin Synthesis in Melanocytes” (Molecules : A Journal of Synthetic Chemistry and Natural …, 2018)
